Experimental data published in patent publication US12281122B1, “PI3K inhibitors” (Cogent Biosciences, Inc., priority 2023, dated 2025).

Columns and labels:
[1] = tested on: T47D (PI3Kα-H1047R) cell line; experiment: HTRF phospho-AKT(S473) cell assay in T47D cells; format: cell-based, human
In short: (§1)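 Cells plated overnight (T47D in RPMI/10% FBS/0.2 units/mL insulin; SKBR3 in McCoy's 5A/10% FBS), then given 12-point 1:3 compound series (top 5 μM T47D, 10 μM SKBR3; ≤0.5% DMSO) for 2 h at 37° C. SKBR3 stimulated with 70 ng/ml PDGF-BB for final 15 min. Lysate pAKT(S473) by HTRF; IC50 calculated.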

[2] = tested on: SKBR3 (PI3Kα-Wild Type) cell line; experiment: HTRF phospho-AKT(S473) cell assay in SKBR3 cells; format: cell-based, human
In short: as §1

[3] = Homo sapiens; T47D (PI3Kα-H1047R) cells, HTRF phospho-AKT(S473), 2 hours compound incubation
[4] = Homo sapiens, SK-BR-3; SKBR3 (PI3Kα-Wild Type) cells, HTRF phospho-AKT(S473), 2 hours compound incubation, PDGF-BB stimulated
[5] = Homo sapiens; HTRF phospho-AKT(S473), T47D (PI3Kα-H1047R) cells, 2 hours compound incubation
[6] = Homo sapiens, SK-BR-3; HTRF phospho-AKT(S473), SKBR3 (PI3Kα-Wild Type) cells, 2 hours compound incubation, PDGF-BB stimulated

| Compound | IC50 [1, 3] [µM] | IC50 [2, 4] [µM] | IC50 [1, 5] [µM] | IC50 [2, 6] [µM] |
| --- | --- | --- | --- | --- |
| Cc1cc([C@@H](C)Nc2ccc(Cl)nc2C(=O)NS(C)(=O)=O)c2nc(N3C[C@@H]4[C@H](C3)[C@H]4c3ccnn3C)n(C)c(=O)c2c1 [Compound 296, 6-chloro-3-(((R)-1-(3,6-dimethyl-2-((1R,5S,6R)-6-(1-methyl-1H-pyrazol-5-yl)-3-azabicyclo[3.1.0]hexan-3-yl)-4-oxo-3,4-dihydroquinazolin-8-yl)ethyl)amino)-N-(methylsulfonyl) picolinamide] | 0.25 to 0.5 | 1 to 5 | – | – |
| Cc1cc([C@@H](C)Nc2ccc(Cl)nc2C(=O)NS(C)(=O)=O)c2nc(N3C[C@@H]4[C@H](C3)[C@H]4c3nn(C)c(C)c3F)n(C)c(=O)c2c1 [Compound 462, 6-chloro-3-(((R)-1-(2-((1R,5S,6R)-6-(4-fluoro-1,5-dimethyl-1H-pyrazol-3-yl)-3-azabicyclo[3.1.0]hexan-3-yl)-3,6-dimethyl-4-oxo-3,4-dihydroquinazolin-8-yl)ethyl)amino)-N-(methylsulfonyl) picolinamide] | – | – | < 0.25 | ≥ 5 |
| Cc1cc([C@@H](C)Nc2ccc(Cl)nc2C(=O)NS(C)(=O)=O)c2nc(N3CCc4oncc4C3)n(C)c(=O)c2c1 [Compound 276, (R)-6-chloro-3-((1-(2-(6,7-dihydroisoxazolo[4,5-c]pyridin-5(4H)-yl)-3,6-dimethyl-4-oxo-3,4-dihydroquinazolin-8-yl)ethyl)amino)-N-(methylsulfonyl) picolinamide] | < 0.25 | 1 to 5 | – | – |
| Cc1cc([C@@H](C)Nc2ccc(Cl)nc2C(=O)NS(C)(=O)=O)c2nc(N3CCC(c4ccn(-c5cccnc5)n4)CC3)n(C)c(=O)c2c1 [Compound 312, (R)-6-chloro-3-((1-(3,6-dimethyl-4-oxo-2-(4-(1-(pyridin-3-yl)-1H-pyrazol-3-yl)piperidin-1-yl)-3,4-dihydroquinazolin-8-yl)ethyl)amino)-N-(methylsulfonyl) picolinamide] | < 0.25 | 1 to 5 | – | – |
| Cc1cc([C@@H](C)Nc2ccc(Cl)nc2C(=O)NS(C)(=O)=O)c2nc(N3CCC(C)(c4nn(C)cc4F)CC3)n(C)c(=O)c2c1 [Compound 406, (R)-6-chloro-3-((1-(2-(4-(4-fluoro-1-methyl-1H-pyrazol-3-yl)-4-methylpiperidin-1-yl)-3,6-dimethyl-4-oxo-3,4-dihydroquinazolin-8-yl)ethyl)amino)-N-(methylsulfonyl) picolinamide] | 0.25 to 0.5 | ≥ 5 | – | – |
| Cc1cc([C@@H](C)Nc2ccc(Cl)nc2C(=O)NS(C)(=O)=O)c2nc(N3CCC(c4cccc(=O)n4C)CC3)n(C)c(=O)c2c1 [Compound 370, (R)-6-chloro-3-((1-(3,6-dimethyl-2-(4-(1-methyl-6-oxo-1,6-dihydropyridin-2-yl)piperidin-1-yl)-4-oxo-3,4-dihydroquinazolin-8-yl)ethyl)amino)-N-(methylsulfonyl) picolinamide] | < 0.25 | 1 to 5 | – | – |
| Cc1cc([C@@H](C)Nc2ccc(Cl)nc2C(=O)NS(C)(=O)=O)c2nc(N3CCC[C@@H](c4cnn(C)c4)C3)n(C)c(=O)c2c1 (relative stereo) [Compound 202, 6-chloro-3-(((R)-1-(3,6-dimethyl-2-((R*)-3-(1-methyl-1H-pyrazol-4-yl)piperidin-1-yl)-4-oxo-3,4-dihydroquinazolin-8-yl)ethyl)amino)-N-(methylsulfonyl) picolinamide] | < 0.25 | 1 to 5 | – | – |

Next, values leading:

| IC50 [1, 3] [µM] | IC50 [2, 4] [µM] | IC50 [1, 5] [µM] | IC50 [2, 6] [µM] | Compound |
| --- | --- | --- | --- | --- |
| – | – | < 0.25 | 1 to 5 | Cc1cc([C@@H](C)Nc2ccc(Cl)nc2C(=O)NS(C)(=O)=O)c2nc([C@H]3[C@@H]4CN(c5cnc(C)nc5)C[C@@H]43)n(C)c(=O)c2c1 [Compound 820, 6-chloro-3-(((R)-1-(3,6-dimethyl-2-((1R,5S,6r)-3-(2-methylpyrimidin-5-yl)-3-azabicyclo[3.1.0]hexan-6-yl)-4-oxo-3,4-dihydroquinazolin-8-yl)ethyl)amino)-N-(methylsulfonyl) picolinamide] |
| – | – | < 0.25 | 1 to 5 | CC(=O)N1CCN(c2cc(F)c(-c3nc4c([C@@H](C)Nc5ccc(Cl)nc5C(=O)NS(C)(=O)=O)cc(C)cc4c(=O)n3C)cc2F)CC1 [Compound 800, (R)-3-((1-(2-(4-(4-acetylpiperazin-1-yl)-2,5-difluorophenyl)-3,6-dimethyl-4-oxo-3,4-dihydroquinazolin-8-yl)ethyl)amino)-6-chloro-N-(methylsulfonyl) picolinamide] |
| – | – | < 0.25 | 1 to 5 | Cc1cc([C@@H](C)Nc2ccc(Cl)nc2C(=O)NS(C)(=O)=O)c2nc(N3CC[C@@H](c4ccc(C)nc4)C3)n(C)c(=O)c2c1 (relative stereo) [Compound 659, 6-chloro-3-(((R)-1-(3,6-dimethyl-2-((R*)-3-(6-methylpyridin-3-yl)pyrrolidin-1-yl)-4-oxo-3,4-dihydroquinazolin-8-yl)ethyl)amino)-N-(methylsulfonyl) picolinamide] |
| – | – | 0.25 to 0.5 | 1 to 5 | Cc1cc([C@@H](C)Nc2ccc(Cl)nc2C(=O)NS(C)(=O)=O)c2nc(-c3cc4cn(C)nc4cn3)n(C)c(=O)c2c1 [Compound 839, (R)-6-chloro-3-((1-(3,6-dimethyl-2-(2-methyl-2H-pyrazolo[3,4-c]pyridin-5-yl)-4-oxo-3,4-dihydroquinazolin-8-yl)ethyl)amino)-N-(methylsulfonyl) picolinamide] |
| – | – | < 0.25 | ≥ 5 | CCn1ncc(F)c1C1CCN(c2nc3c([C@@H](C)Nc4ccc(Cl)nc4C(=O)NS(C)(=O)=O)cc(C)cc3c(=O)n2C)CC1 [Compound 467, (R)-6-chloro-3-((1-(2-(4-(1-ethyl-4-fluoro-1H-pyrazol-5-yl)piperidin-1-yl)-3,6-dimethyl-4-oxo-3,4-dihydroquinazolin-8-yl)ethyl)amino)-N-(methylsulfonyl) picolinamide] |
| – | – | < 0.25 | 1 to 5 | Cc1cc([C@@H](C)Nc2ccc(Cl)nc2C(=O)NS(C)(=O)=O)c2nc(N3CCC(c4ccnn4CC(F)(F)F)CC3)n(C)c(=O)c2c1 [Compound 488, (R)-6-chloro-3-((1-(3,6-dimethyl-4-oxo-2-(4-(1-(2,2,2-trifloroethyl)-1H-pyrazol-5-yl)piperidin-1-yl)-3,4-dihydroquinazolin-8-yl)ethyl)amino)-N-(methylsulfonyl) picolinamide] |
| – | – | 0.25 to 0.5 | 1 to 5 | Cc1cc([C@@H](C)Nc2ccc(Cl)nc2C(=O)NS(C)(=O)=O)c2nc(N3C[C@@H]4[C@H](C3)[C@H]4c3ncn(C)n3)n(C)c(=O)c2c1 [Compound 507, 6-chloro-3-(((R)-1-(3,6-dimethyl-2-((1R,5S,6R)-6-(1-methyl-1H-1,2,4-triazol-3-yl)-3-azabicyclo[3.1.0]hexan-3-yl)-4-oxo-3,4-dihydroquinazolin-8-yl)ethyl)amino)-N-(methylsulfonyl) picolinamide] |
| – | – | 0.5 to 1 | > 5 | Cc1ccc(N2C[C@@H]3C[C@H]2CN3c2nc3c([C@@H](C)Nc4ccc(Cl)nc4C(=O)NS(C)(=O)=O)cc(C)cc3c(=O)n2C)nc1 [Compound 663, 6-chloro-3-(((R)-1-(3,6-dimethyl-2-((1S,4S)-5-(5-methylpyridin-2-yl)-2,5-diazabicyclo [2.2.1]heptan-2-yl)-4-oxo-3,4-dihydroquinazolin-8-yl)ethyl)amino)-N-(methylsulfonyl) picolinamide] |
